Data from patent US4430335A (priority 1983, dated 1984).

System: mice
Set-up: species or system mice (male, CD-1)
Details: mouse, in vivo

CCC(=O)O[C@](Cc1ccccc1)(c1ccccc1)[C@H](C)CN(C)C [propoxyphine]
Dose Subcutaneously (sc) [*= ED50 ], 50 % Inhibition of phenylquinone writhing: 3.4
